Results taken from publication PMC9897788, “Design, synthesis and cytotoxic evaluation of novel bis-thiazole derivatives as preferential Pim1 kinase inhibitors with in vivo and in silico study” (Journal of Enzyme Inhibition and Medicinal Chemistry, 2023).

Experiments:
Experiment in all cases: NCI 60 cell one-dose screening (SRB)
Format in all cases: cell-based
SN12C = conditions: Homo sapiens, Renal Cancer, single dose 10 µM, 48 h, read-out: Percentage of cellular growth inhibition
Description: (§1) The 60 cancerous cell panel screening was performed following the Developmental Therapeutics Program (DTP) of the National Cancer Institute (NIH-NCI), USA. A single dose of 10 µM was used to perform the screening at 48 h incubation and the results were achieved as cancerous cell growth percentage relative to the no-drug control that was converted to an inhibition percentage by subtracting from 100.The cancerous cell lines were grown in RPMI 1640 medium containing 5% foetal bovine serum and 2 mM L-glutamine at 37 °C, 5% CO2, 95% air and 100% relative humidity for 24 h prior to addition of the tested compounds. After 24 h, two plates of each cell line were fixed in situ with TCA to represent a measurement of the cell population for each cell line at the time of drug addition (Tz). Compounds were dissolved in DMSO at 400-fold the desired final maximum test concentration and stored frozen prior to use. At the time of drug addition, an aliquot of frozen concentrate was thawed and diluted to twice the desired final maximum test concentration with complete medium containing 50 µg/mL gentamicin. Aliquots of 100 µL of the compounds dilution was added to the appropriate micro titre wells already containing 100 µL of medium, resulting in the required final drug concentrations of 10 µM. Following compounds addition, the plates were incubated for an additional 48 h at 37 °C, 5% CO2, 95% air, and 100% relative humidity. For adherent cells, the assay was terminated by the addition of cold TCA. Cells were fixed in situ by the gentle addition of 50 µL of cold 50% (w/v) TCA (final concentration, 10% TCA) and incubated for 60 min at 4 °C. The supernatant was discarded, and the plates were washed five times with tap water and air dried. Sulphorhodamine B (SRB) solution (100 µL) at 0.4% (w/v) in 1% acetic acid is added to each well, and plates are incubated for 10 min at room temperature. After staining, unbound dye was removed by washing five times with 1% acetic acid and the plates were air dried. Bound stain was subsequently solubilised with 10 mM trizma base, and the absorbance was read on an automated plate reader at a wavelength of 515 nm. For suspension cells, the methodology was the same except that the assay was terminated by fixing settled cells at the bottom of the wells by gently adding 50 µL of 80% TCA (final concentration, 16% TCA). Using the seven absorbance measurements [time zero, (Tz), control growth, I, and test growth in the presence of drug at the five concentration levels (Ti)], the percentage growth was calculated as: [(Ti−Tz)/(C−Tz)]×100 for concentrations for which Ti>/=Tz [(Ti−Tz)/Tz]×100 for concentrations for which Ti<Tz.

HCC-2998 = conditions: Homo sapiens; HCC-2998, Colon Cancer; single dose 10 µM, 48 h; read-out: Percentage of cellular growth inhibition
Description: as §1

MOLT-4 = conditions: Homo sapiens; MOLT-4, Leukemia; single dose 10 µM, 48 h; read-out: Percentage of cellular growth inhibition
Description: as §1

M14 = conditions: Homo sapiens; M14, Melanoma; single dose 10 µM, 48 h; read-out: Percentage of cellular growth inhibition
Description: as §1

A498 = conditions: Homo sapiens; A498, Renal Cancer; single dose 10 µM, 48 h; read-out: Percentage of cellular growth inhibition
Description: as §1

SK-OV-3 = conditions: Homo sapiens; SK-OV-3, Ovarian Cancer; single dose 10 µM, 48 h; read-out: Percentage of cellular growth inhibition
Description: as §1

HS 578T = conditions: Homo sapiens, Breast Cancer, single dose 10 µM, 48 h, read-out: Percentage of cellular growth inhibition
Description: as §1

EKVX = conditions: Homo sapiens, Non-Small Cell Lung Cancer, single dose 10 µM, 48 h, read-out: Percentage of cellular growth inhibition
Description: as §1

NCI-H460 = conditions: Homo sapiens; NCI-H460, Non-Small Cell Lung Cancer; single dose 10 µM, 48 h; read-out: Percentage of cellular growth inhibition
Description: as §1

BT-549 = conditions: Homo sapiens; BT-549, Breast Cancer; single dose 10 µM, 48 h; read-out: Percentage of cellular growth inhibition
Description: as §1

CCRF-CEM = conditions: Homo sapiens, Leukemia, single dose 10 µM, 48 h, read-out: Percentage of cellular growth inhibition
Description: as §1

HT29 = conditions: Homo sapiens, HT-29; HT29, Colon Cancer; single dose 10 µM, 48 h; read-out: Percentage of cellular growth inhibition
Description: as §1

ACHN = conditions: Homo sapiens, Renal Cancer, single dose 10 µM, 48 h, read-out: Percentage of cellular growth inhibition
Description: as §1

MDA-MB-468 = conditions: Homo sapiens; MDA-MB-468, Breast Cancer; single dose 10 µM, 48 h; read-out: Percentage of cellular growth inhibition
Description: as §1

SF-268 = conditions: Homo sapiens; SF-268, CNS Cancer; single dose 10 µM, 48 h; read-out: Percentage of cellular growth inhibition
Description: as §1

MDA-MB-435 = conditions: Homo sapiens; MDA-MB-435, Melanoma; single dose 10 µM, 48 h; read-out: Percentage of cellular growth inhibition
Description: as §1

SF-539 = conditions: Homo sapiens; SF-539, CNS Cancer; single dose 10 µM, 48 h; read-out: Percentage of cellular growth inhibition
Description: as §1

OVCAR-4 = conditions: Homo sapiens; OVCAR-4, Ovarian Cancer; single dose 10 µM, 48 h; read-out: Percentage of cellular growth inhibition
Description: as §1

UACC-257 = conditions: Homo sapiens; UACC-257, Melanoma; single dose 10 µM, 48 h; read-out: Percentage of cellular growth inhibition
Description: as §1

SW-620 = conditions: Homo sapiens; SW-620, Colon Cancer; single dose 10 µM, 48 h; read-out: Percentage of cellular growth inhibition
Description: as §1

SK-MEL-28 = conditions: Homo sapiens; SK-MEL-28, Melanoma; single dose 10 µM, 48 h; read-out: Percentage of cellular growth inhibition
Description: as §1

SMILES | inhibition at 10 µM (SN12C) [%] | inhibition at 10 µM (HCC-2998) [%] | inhibition at 10 µM (MOLT-4) [%] | inhibition at 10 µM (M14) [%] | inhibition at 10 µM (A498) [%] | inhibition at 10 µM (SK-OV-3) [%] | inhibition at 10 µM (HS 578T) [%] | inhibition at 10 µM (EKVX) [%] | inhibition at 10 µM (NCI-H460) [%] | inhibition at 10 µM (BT-549) [%] | inhibition at 10 µM (CCRF-CEM) [%] | inhibition at 10 µM (HT29) [%] | inhibition at 10 µM (ACHN) [%] | inhibition at 10 µM (MDA-MB-468) [%] | inhibition at 10 µM (SF-268) [%] | inhibition at 10 µM (MDA-MB-435) [%] | inhibition at 10 µM (SF-539) [%] | inhibition at 10 µM (OVCAR-4) [%] | inhibition at 10 µM (UACC-257) [%] | inhibition at 10 µM (SW-620) [%] | also measured
Clc1ccc(-c2cs/c(=N\c3ccccc3)n2-c2cccc(-n3c(-c4ccc(Cl)cc4)cs/c3=N\c3ccccc3)c2)cc1 [8c, N,N’-(3,3’-(1,3-phenylene)bis(4–(4-chlorophenyl)thiazole-3(3H)-yl-2(3H)-ylidene))dianiline] | 2.3 | -1.7 | 12.3 | -10.7 | -16.3 | -29.4 | 10.4 | 4.9 | 0.1 | -15.5 | 32.6 | 12.4 | -1.5 | 35.4 | 12.1 | 5.4 | -3 | 12 | -8.4 | 36.7 | inhibition at 10 µM (SK-MEL-28): -1%
NC(=S)Nc1cccc(NC(N)=S)c1 [compound 2, 1,1′-(1,3-phenylene)bis(thiourea)] | 18.1 | -16.9 | 10.3 | -25.1 | -1.2 | -25.8 | -5 | -1.3 | -9.7 | -14.6 | 3.6 | -13.3 | 3.7 | 13.5 | 9.1 | 2.7 | -0.5 | 5.4 | 1.9 | -6.9 | inhibition at 10 µM (SK-MEL-28): -3.8%
S=C(Nc1ccccc1)Nc1cccc(NC(=S)Nc2ccccc2)c1 [compound 7, 1,1′-(1,3-phenylene)bis(3-phenylthiourea)] | 4.5 | -11.5 | -5.8 | -19.6 | -17.7 | -29 | 3.9 | 2.5 | -16.5 | -13.2 | 56.8 | -26.3 | -3.8 | -8.4 | 3.3 | -2.8 | -11.5 | -6.6 | -1.7 | -16.8 | inhibition at 10 µM (SK-MEL-28): -9.8%
